Assay results: a compilation of properties of binary mixtures (doi:10.1016/j.molliq.2021.118139)

Assay: xn = mol fraction of the nth substance listed
Settings: 100 kPa

CC[N+](CC)(CC)CC.[Cl-] + OCCOCCOCCO
Settings | electrical conductivity, 293.15 K [S/m] | electrical conductivity, 303.15 K [S/m] | electrical conductivity, 313.15 K [S/m] | electrical conductivity, 323.15 K [S/m] | electrical conductivity, 333.15 K [S/m] | viscosity, 293.15 K [mPa·s] | viscosity, 303.15 K [mPa·s] | viscosity, 313.15 K [mPa·s] | viscosity, 323.15 K [mPa·s] | viscosity, 333.15 K [mPa·s]
x1 = 0.1667 | 0.16 | 0.226 | 0.313 | 0.424 | 0.564 | 80 | 55.9 | 40 | 29.2 | 21.7
x1 = 0.25 | 0.194 | 0.276 | 0.384 | 0.524 | 0.702 | 117 | 77 | 52.1 | 36.1 | 25.6

CCCC[N+](CCCC)(CCCC)CCCC.[Cl-] + Oc1ccccc1
Settings | electrical conductivity, 293.15 K [S/m] | electrical conductivity, 303.15 K [S/m] | electrical conductivity, 313.15 K [S/m] | electrical conductivity, 323.15 K [S/m] | electrical conductivity, 333.15 K [S/m] | viscosity, 293.15 K [mPa·s] | viscosity, 303.15 K [mPa·s] | viscosity, 313.15 K [mPa·s] | viscosity, 333.15 K [mPa·s]
x1 = 0.1667 | 0.0802 | 0.117 | 0.167 | 0.232 | 0.317 | – | – | – | –
x1 = 0.167 | – | – | – | – | – | 91.3 | 66.4 | 49.2 | 28.6
